# Data: patent US5358936A, “Anionic furanose derivatives, methods of making and using the same” (Gordon; Paul, priority 1991, dated 1994)
# Where “and” joins values, the source holds several entries; their conditions need not be identical. Identical values can stand only once. Counter-ions that a name gives are not always drawn. Like-named read-outs stand apart in the source and are kept apart here.
# Assays:
# [1] = Acute toxicity in the mouse (Example 29 A); conditions: in vivo
# Description: Acute intraperitoneal and oral toxicity of Compound III was studied in the mouse. Ten animals per dose were employed.
# [2] = Dissolution and buffering of suspensions, HCl titration (Example 16); conditions: HCl titration
# Description: Note that the term "apparent pK" in this context is meant to encompass the maximization of buffering that come both from solid-state dissolution and its titration as solute.
# mouse blood coagulation = experiment: Blood coagulation, in vitro clotting time (Example 31 A); conditions: 10 μg/ml in normal saline
# Method: To assess the effect on coagulation, if any, of a compound of the invention, a comparative evaluation was made using mouse blood.
# One ml of freshly drawn mouse blood was added to each tube, and the tube contents were mixed. The clotting time was then noted for each tube, and the results are as shown below:
# [3] = Chronic toxicity in C57 Black mice by drinking water (Example 29 B); format: in vivo; conditions: 28 days, average daily dose 175 mg/kg
# Method: However, eight mice were treated with Compound III by drinking water, for a period of 28 days. During this time, the average daily dose consumed was 175 mg/kg.
# stomach ulcers = experiment: Gastric ulcers in rats with corona virus infection treated with indomethacin (Example 26); format: in vivo, rat
# Description: Corona virus is a non-lethal upper respiratory viral pathogen that not infrequently infects rat colonies. It is a type of rodent coryza or catarrh, the equivalent of a disease that falls somewhere between human influenza and a severe common cold. The animals of this study suffered from this condition, a circumstance which was evident by observation, and which was confirmed by virological diagnosis at the Biological Resources Laboratory of the University of Illinois at Chicago. Since stress is a common component of peptic ulcer development in both animals and man, it was concluded that this feature of the status of these experimental animals rendered them appropriate for an ulcer study.
# In this study, animals were not food deprived and were divided into treatment groups such that 15 rats received 30 mg/kg indomethacin alone (in water by oral gavage), 14 rats received indomethacin plus an injection of 25 mg/kg cimetidine subcutaneously, and 7 rats received indomethacin plus subcutaneous injection of 17.5 mg/kg of Compound III.
# All animals were sacrificed by ether euthanasia 24 hours later and their stomachs evaluated for ulcer pathology. In this study ulcers were not hemorrhagic. Results are shown below as the average number of stomach ulcers per stomach.
# rat hind paws = experiment: Paw swelling provoked by zymosan-activated serum or normal serum (Example 23); format: in vivo; conditions: for Paw Swelling, ZAS (MPO study): 45 minutes before ZAS, ZAS alone 34.58 ± 2.45; for Paw Swelling, ZAS (MPO study) / Paw Swelling, ZAS: P < 0.01; for Swelling Change, ZAS / Swelling Change, normal serum (NS): 50 mg/kg oral
# Method: For the present studies, zymosan-activated serum (ZAS) was made by incubating reconstituted lyophilized rat serum with 10 mg/ml zymosan A for one hour at 37° C., and then microfiltering to remove the zymosan.
# In the first study, distilled water vehicle or 50 mg/kg Compound III in water were given by oral gavage to 9 control and 9 drug-treated adult male rats, respectively, and 90 minutes later the dorsoventral diameter of the hind feet were determined by Schnelltaster caliper. Sera [0.1 ml ZAS or 0.1 ml normal serum (NS)] were thereafter injected into opposite hind paws of the same rat under ether anesthesia. Below are given the paw swellings that developed at 2 and 3 hours, in response to ZAS and to normal serum, in the absence and presence of drug treatment. Data are reported previously.
# The relationship of neutrophil infiltration to ZAS-induced swelling, and its drug-inhibition, was evaluated in another study. In this study, all procedures employing ZAS and Compound III were carried out as above, except that, Compound III was administered 45 minutes before ZAS, and standardized samples of the swollen footpads were removed and subjected to analysis for myeloperoxidase activity (MPO), according to the method of Lundberg et al., Inflammation, 7:247, (1983). MPO is a neutrophil-specificenzyme, and its assay is the most widely used method of identifying the degree of neutrophil participation in organ pathology.
# gastric ulcers = conditions: 50 mg/kg oral gavage 45 minutes before; for Frequency of ulcer-bearing rats: combined groups P<0.01
# Method: In this method, a relatively large amount of ethanol is administered to rats by oral gavage (1.0 ml/200 gm), a procedure widely used to produce ordinary gastric ulceration. This injection, however, is given in combination with the intraperitoneal injection of heparin sulfate (10 mg/kg).
# Compound III treatment was 50 mg/kg by oral garage in distilled water as diluent, at 45 minutes before ulcer induction.
# The effects of ethanol alone and ethanol plus Compound III were assessed four hours after ethanol administration. The effects of ethanol plus heparin and ethanol plus heparin plus Compound III were assessed 24 hours after administration of the ulcer inducing combination. Ulcer formation was assessed as discussed in Example 20.
# In this and the following examples, the potassium salt of the drug indicated by a Roman numeral was used; i.e., M is potassium (K^+).
# rat stomachs = experiment: Gastric pathology following inflammatory stress and indomethacin, fed rats (Example 20); format: in vivo, male Sprague Dawley rats; design: scale not given here; conditions: stress + indomethacin 30 mg/kg oral; Compound III 50 mg/kg subcutaneously where given; 24 hours
# Method: Stress was induced by the following procedure. On day one, under ether anesthesia, 18 male Sprague Dawley rats were injected with a suspension of Zymosan A (1 mg/ml in normal saline; Sigma Chemical Co.) in each hind paw. Swelling developed and persisted. This treatment generated activated blood complement locally (including the C5a moiety), which then spread by the bloodstream throughout the animal.
# Twenty-four hours later all rat paws were reinjected, this time with 0.1 ml of proinflammatory zymosan-activated rat serum containing additional amounts of inflammatory complement fragment C5a (as in Example 23, hereinafter). Five hours later 30 mg/kg indomethacin in an aqueous suspension was given to nine such rats by oral garage. These rats also received a subcutaneous injection of 0.1 ml normal saline. Nine other such rats were given indomethacin as above, and Compound III (50 mg/kg in normal saline subcutaneously). Four additional rats, not stressed (normal) were given water by garage as a placebo and saline subcutaneously. All rats were fed ad libitum on standard diet.
# Twenty-four hours later all animals were sacrificed by ether euthanasia. Their stomachs were washed with saline and evaluated for ulcer-related pathology using an illuminated magnifying glass. This assay is similar to that reported by Kinney et al., J. Med. Chem., 33:327 (1990).
# mouse paw = experiment: Mouse paw edema provoked by clostridial collagenase (Example 32); format: in vivo; conditions: for maximal drug inhibition of edema: lower enzyme level (0.05 μg/ml), 100 mg/kg divided IV and IP
# Method: Further, mouse paw edema was provoked by two levels of clostridial collagenase enzyme, in the supramaximal range (0.05 μg/ml and 0.15 μg/ml), and treated with one level of drug (Compound III; 100 mg/kg divided equally and administered IV and IP at zero time). The maximal drug inhibition observed was 81 percent at one hour and 87 percent at two hours, for the lower level of enzyme.
smiles,measurement,setting,value
"CC1(C)O[C@H]2O[C@H]([C@@H](COS(=O)(=O)O)OS(=O)(=O)O)[C@H](OS(=O)(=O)O)[C@H]2O1 [Compound III, 1,2-O-(2-Propylidene)-3,5,6-tri-O-sulfo-α-D-glucofuranose, tripotassium salt]",LD50,"[1]; ip, read-out: LD50, intraperitoneal",2800 mg/kg
same,NOAEL,[1]; iv,3000 mg/kg
same,oral dose producing death,[1]; po,> 4500 mg/kg
same,"buffering action, in words",[2],no buffering power
same,"Clotting time, individual mouse","mouse blood coagulation; control 2.0-6.0, tripotassium salt",2.0 min and 1.0 min and 4.0 min
same,Average clotting time,"mouse blood coagulation; control 4.33 ± 1.20, P<0.001",2.0 ± 0.71 min
same,body weight and appearance at termination versus controls,[3],"weighed as much as the controls, and looked sleeker"
same,"ulcer reduction compared with cimetidine, in words",stomach ulcers; 17.5 mg/kg Compound III vs 25 mg/kg cimetidine,greater using Compound III than cimetidine
same,Percent Inhibition of ulcer frequency,"stomach ulcers; indomethacin 30 mg/kg oral, cimetidine 25 mg/kg s.c. or Compound III 17.5 mg/kg s.c.",66%
same,"Ulcer Frequency per stomach, Mn ± SE","stomach ulcers; indomethacin 30 mg/kg oral, cimetidine 25 mg/kg s.c. or Compound III 17.5 mg/kg s.c. where given, P<0.02",0.86 ± 0.46 Per Stomach
same,"Paw Swelling, ZAS (MPO study)","rat hind paws; 17 mg/kg, n = 6",16.83 ± 2.12 0.1 mm
same,"Paw Swelling, ZAS (MPO study)","rat hind paws; 50 mg/kg, n = 12",15.25 ± 3.99 0.1 mm
same,"Paw Swelling, ZAS","rat hind paws; 2 hours post-ZAS, 50 mg/kg oral gavage 90 minutes before, control 27.22 ± 1.97",10.78 ± 1.94 0.1 mm
same,"Swelling Change, ZAS",rat hind paws; 2 hours,-60%
same,"Swelling Change, normal serum (NS)",rat hind paws; 2 hours,-32%
same,"Paw Swelling, normal serum (NS)","rat hind paws; 2 hours, 50 mg/kg oral gavage, control 11.22 ± 1.28",7.67 ± 1.41 0.1 mm
same,"Paw Swelling, ZAS","rat hind paws; 3 hours post-ZAS, 50 mg/kg oral gavage, control 28.89 ± 2.48",16.11 ± 2.94 0.1 mm
same,"Swelling Change, ZAS",rat hind paws; 3 hours,-44%
same,"Swelling Change, normal serum (NS)",rat hind paws; 3 hours,-17%
same,"Paw Swelling, normal serum (NS)","rat hind paws; 3 hours, 50 mg/kg oral gavage, control 11.44 ± 1.55",9.44 ± 1.28 0.1 mm
same,Frequency of rats with bleeding ulcers,"gastric ulcers; ethanol + heparin, 24 hours, P<0.01",0% of Total in Group
same,Frequency of ulcer-bearing rats,"gastric ulcers; ethanol + heparin, 24 hours",25% of Total in Group
same,Frequency of rats with bleeding ulcers,"gastric ulcers; ethanol, four hours",0% of Total in Group
same,Frequency of ulcer-bearing rats,"gastric ulcers; ethanol, four hours",11% of Total in Group
same,Mean Pathology score,rat stomachs,0.00
same,"Pathology score, individual rat",rat stomachs,0.0
same,maximal drug inhibition of edema,mouse paw; one hour,81%
same,"drug inhibition at higher enzyme level, in words","mouse paw; two hours, 0.15 μg/ml enzyme, 100 mg/kg",not significant
same,maximal drug inhibition of edema,mouse paw; two hours,87%
